Measured values: patent US8575376B2, “Steroide anionic compounds, method of their production, usage and pharmaceutical preparation involving them” (Ustav Organicke Chemie A Biochemie Akademie Ved Ceske …, priority 2009, dated 2013)
Entries after “also recorded” stand apart in the source; their conditions may differ. Where two headings read alike, the source gives them in different places.

Legend:
[1] = Pharmacokinetics in plasma and brain after i.p. injection; format: in vivo, rat
Experimental: In the experiment 40 adult Long-Evans male rats from breeding colony of Institute of Physiology AS CR v.v.i., Prague were used. Rats were treated i.p. with a dose 1 mg/kg of compound from example 9 dissolved in 72 mM of hydroxypropyl-β-cyclodextrine saline solution. Brain and plasma was taken 5 min, 15 min, 30 min, 45 min, 60 min, 90 min, 120 min, 180 min, 24 hours and 48 hours after drug administration. Each brain and blood samples were taken from separate rat. Samples were collected in 4 rats for each time interval. Samples were immediately stored in a −80° C. freezer.
The concentrations of compound from example 9 in rat brain and plasma samples were measured by high performance liquid chromatography (HPLC) coupled with mass spectrometry (Agilent 6320 Ion Trap). Deuteried internal standard (3-d labeled compound from example 9) has been used for ensuring high accuracy of measurement.

Long-Evans male rats = test: Acute toxicity in rat; format: in vivo
Experimental: Toxicity of compound from example 9 was tested on 2-month-old Long-Evans male rats. Animals were randomly assigned to 4 groups per 7 animals each. The first group was injected i.p. with saline, the second group received i.p. cyclodextrine, the third group obtained received the compound from example 9 at a dose 1 mg/kg (dissolved in β-cyclodextrine) and the last group compound from example 9 at a dose 100 mg/kg (dissolved in β-cyclodextrine). Animals were monitored for the period of 5 days. At the end of the experiment macroscopic dissection was carried out and organs were weighted (brain, heart, liver, spleen and kidneys). Animals' weight, food and water consumption was monitored daily. At the same time the behavior and locomotor activity was observed and animals were inspected for detection of effusions, constipation, etc.

Long-Evans rats = test: AAPA task after bilateral NMDA excitotoxic lesion of the hippocampus; format: in vivo, rat
Experimental: Neuroprotective action of 3α-substituted derivatives of pregnanolone was tested in the well-established model represented by excitotoxic bilateral lesion of the hippocampus with NMDA, an agonist of NMDA receptors. This model represents a widely-accepted paradigm of excitotoxicity induced experimental disruption of memory functions in laboratory rodents. The model also mimics into some extent the excessive action of glutamate on cells in the hippocampus, which contains abundance of NMDA receptors. The effect of lesions and possible neuroprotective action can be observed at various intervals after treatment both on the histological and behavioral level, provided that a suitable hippocampus-dependent memory task is available. In our studies, we have used a hippocampus-dependent spatial task AAPA (see above), which requires spatial and executive abilities and involves so-called “cognitive coordination” (Wesierska et al., 2005). Again, all manipulations with animals conformed to current legislation and Institutional recommendations on animal care and were approved by ethical-care committee.
In this phase of experiment, we have studied the effect of compound from Example 9 (and relation of this effect to dose) on NMDA excitotoxic hippocampal lesion after various intervals from lesioning. 150 adult male Long-Evans rats (250-350 g) were used in the study. Rats were housed in transparent plastic cages (25×25×40 cm) in air-conditioned animal room with 12/12 h dark/light rhythmicity. All rats had free access to food and water throughout the study.
During surgery, animals were deeply anesthetized by isoflurane inhalation anesthesia (3.5%, driven by air). Initial sedation was pursued in initiation chamber filled with diethyl ether vapor. During whole anesthesia, vital functions of animals were precisely monitored by the person pursuing surgery. After fixation in the stereotaxic apparatus (Kopf Instruments) the skull was exposed and small trephine openings were drilled with micro driller and subsequently, 1 ul of NMDA solution ([…] NMDA in saline buffered with calcium dihydrogenphosphate to pH=7.2) was microinjected into both dorsal hippocampi. The stereotaxic coordinates (AP=4; L=±2.5; DV=4) were measured from a rigorous atlas (Paxinos and Watson, 2005) and later verified from histological examination. Rats were then placed into soft post-surgery boxes. […] Doses of compound from Example 9 were: 0.01 mg/kg, 0.1 mg/kg and 10 mg/kg of b.w. In control groups and lesion-only groups, we applied only saline and NMDA, respectively. Solution of compound from Example 9 (0.01 mg/2 ml, 0.1 mg/2 ml or 10 mg/2 ml dissolved in cyclodextrin) was applied s.c. at a volume of 2 ml/kg.
Prior to behavioral observations, animals were left for 7 days to recover after surgery. After this recovery period, two days (each consisting of two sessions) of AAPA training were conducted. Each rat was initially placed onto rotating (1 rpm) circular arena containing a to-be-avoided sector (60°), fixed in the coordinate frame of the room (Stuchlik et al., 2008). Upon entrance into the prohibited sector, rat was punished by a mild electric footshock (˜0.3 mA] delivered from low-impedance subcutaneous wire to contact between rats paws and grounded floor (with highest voltage drop in rats feet). Rats wore a latex harness on their backs, holding an infrared light-emitting diode (LED), which was sampled by TV camera mounted above the arena and connected to a computer digitizing system (iTrack, Biosignal Group, USA). The shock sector is not directly perceptible for animals and its location can be determined solely by its relationships with distal room landmarks. […] The task is highly dependent upon hippocampus, with unilateral inactivation of this structure leading to avoidance deficit (Cimadevilla et al., 2001). This was the reason why we have selected this task for NMDA-induced impairment and detection of putative neuroprotective action of our compound (Example 9). […]

rats = test: Open-field locomotion in MK-801 animal model of schizophrenia; format: in vivo, rat
Experimental: The effect of the compound from example 9 in doses of 0.1 mg/kg and 1 mg/kg on locomotor activity in open field test was evaluated. Locomotor activity expressed as a total distance travelled during 30 min exploration of a box (68×68×30 cm) located in a sound proof room was measured using a video tracking system for automation of the behavioural experiments (Noldus, EthoVision, Version 2.1.).

[2] = rat, 1 mg/kg i.p., mean of 4 rats
[3] = 10 mg/kg s.c., 30 min prior to and after lesion, or 120 min after lesion

Question: With CC(=O)[C@H]1CC[C@H]2[C@@H]3CC[C@@H]4C[C@H](OC(=O)[C@@H](N)CCC(=O)O)CC[C@]4(C)[C@H]3CC[C@]12C [Example 9, 20-Oxo-5β-pregnan-3α-yl L-glutamyl 1-ester] as the compound, how does the Tmax ([1]; male, Long-Evans, brain, ip, rat, 1 mg/kg i.p., read-out: Tmax in brain (converted)) read?
Answer: 1 h

Question: And the Cmax ([1]; male, Long-Evans, plasma, ip, rat, 1 mg/kg i.p.)?
Answer: 675 ng/mL

Question: What about the Tmax ([1]; male, Long-Evans, plasma, ip, rat, 1 mg/kg i.p., read-out: Tmax in plasma (converted)) of the same compound?
Answer: 0.25 h

Question: And the half-life ([1]; male, Long-Evans, rat, intraperitoneal, 1 mg/kg, plasma, estimated)?
Answer: 4.45 h

Question: And the AUC ([1]; male, Long-Evans, rat, ip, 1 mg/kg, plasma, estimated, read-out: AUC0_inf i.p. (converted))?
Answer: 1260 ng·h/mL

Question: What about the Ke ([1]; plasma, estimated) of the same compound?
Answer: 0.002593

Question: And the “accumulation in brain tissue” value ([1]; rat, 1 mg/kg i.p.)?
Answer: not cumulated in brain tissue

Question: And the “blood brain barrier penetration” value ([1]; rat, 1 mg/kg i.p.)?
Answer: penetrates blood brain barrier

Question: And the cmax in brain ([1]; rat, 1 mg/kg i.p.)?
Answer: 508 ng/whole brain

Question: And the “brain level after 2 hours” value [1, 2]?
Answer: 222 ng/whole brain

Question: And the “brain level after 3 hours” value [1, 2]?
Answer: 128 ng/whole brain

Question: And the “brain level after 24 hours” value [1, 2]?
Answer: 14 ng/whole brain

Question: What about the “brain level after 48 hours” value [1, 2] of the same compound?
Answer: 0.6 ng/whole brain

Question: And the “short-term body weight gain” value (Long-Evans male rats; 1 mg/kg i.p. (lower dose), 5 days)?
Answer: failed to affect short-term body weight gain

Question: What about the “time to spontaneous awakening” value (Long-Evans male rats; 100 mg/kg i.p.) of the same compound?
Answer: 4 h

Question: And the “short-term body weight gain” value (Long-Evans male rats; 100 mg/kg i.p. (higher dose), 5 days)?
Answer: tended to decrease it slightly

Question: And the “locomotor activity on the day of application” value (Long-Evans male rats; 100 mg/kg i.p., 15 minutes after injection)?
Answer: decreased locomotor activity

Question: And the anesthetic effect (Long-Evans male rats; 100 mg/kg i.p., 45 minutes after injection)?
Answer: gradually changed into anesthesia of animals

Question: What about the “weight of body organs (brain, heart, liver, spleen, kidneys)” value (Long-Evans male rats; 1 and 100 mg/kg i.p., autopsy on day 5) of the same compound?
Answer: no differences between controls and animals treated with the compound from example 9

Question: And the “signs of acute toxicity” value (Long-Evans male rats; rat, i.p., doses up to 100 mg/kg, 5 days)?
Answer: does not exhibit any signs of acute toxicity; also recorded: absense of any signs of acute toxicity

Question: And the “number of entrances in AAPA after NMDA lesion” value (“number of entrances in AAPA” for short) (Long-Evans rats; 0.01 mg/kg s.c., 30 min after lesion)?
Answer: improved the subsequent performance in the AAPA task

Question: And the “maximum time avoided in AAPA after NMDA lesion” value (shortened to “maximum time avoided in AAPA”) (Long-Evans rats; 0.01 mg/kg s.c., 30 min after lesion, or 30 min prior to and after lesion)?
Answer: had beneficial effect in lesioned animals

Question: And the “number of entrances in AAPA” value (Long-Evans rats; 0.01 mg/kg s.c., 30 min prior to and after lesion)?
Answer: the alleviation was not significant

Question: What about the “number of entrances in AAPA” value (Long-Evans rats; 0.01 mg/kg s.c., longer intervals from the lesion) of the same compound?
Answer: exerted no effect after longer intervals from the lesion

Question: What about the “maximum time avoided in AAPA” value (Long-Evans rats; 0.1 mg/kg s.c.) of the same compound?
Answer: tended to alleviate the performance of rats compared to lesioned animals without treatment

Question: And the “number of entrances in AAPA” value (Long-Evans rats; 0.1 mg/kg s.c., 30 min after lesion)?
Answer: non-significantly improved the behavioral performance

Question: And the “maximum time avoided in AAPA” value (Long-Evans rats; [3])?
Answer: caused a significant improvement of rat performance

Question: What about the “number of entrances in AAPA” value (Long-Evans rats; [3]) of the same compound?
Answer: significant protective effect against hippocampal lesion

Question: And the “number of entrances in AAPA” value (Long-Evans rats; 10 mg/kg s.c., other delays)?
Answer: No improvement was seen at other delays

Question: What about the “hyperlocomotion induced by MK-801 in open field” value (rats; Example 9 0.1 or 1 mg/kg + MK-801 0.1 mg/kg) of the same compound?
Answer: has not effect on hyperlocomotion state induced by MK-801

Question: What about the “locomotion in open field (total distance, 30 min)” value (rats; substance alone, Example 9 0.1 and 1 mg/kg, MK-801 0.1 mg/kg) of the same compound?
Answer: did not produce locomotor alterations in the open-field test
